Experimental data reported in the supplement of paper PMC8612539.
Values after ≈ are worked out from the molar mass of the structure shown.

Test system: Histophilus somni
Test: minimum inhibitory concentration (MIC)
Procedure: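 Broth microdilution MIC (Sensititre BOPO7F bovine plate, CLSI methods) of 19 antimicrobials against field isolates of P. multocida, M. haemolytica, H. somni (deep nasopharyngeal swabs) and E. coli, Enterococcus spp. (rectal swabs) from weaned dairy heifers. Incubation 16-24 h at 35 C. MIC is the lowest concentration preventing visible growth. Values with <= or > lie at the tested range limits. Trimethoprim-sulfamethoxazole is given as the trimethoprim component of a 1:19 mixture.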

CCCN1C[C@H](C)[C@@H](O)[C@](C)(O)[C@@H](CC)OC(=O)[C@H](C)[C@@H](O[C@H]2C[C@@](C)(OC)[C@@H](O)[C@H](C)O2)[C@H](C)[C@@H](O[C@@H]2O[C@H](C)C[C@H](N(C)C)[C@H]2O)[C@](C)(O)C[C@H]1C [Gamithromycin]
minimum inhibitory concentration (isolate (source animal id): 3): ≤ 1 µg/mL | minimum inhibitory concentration (isolate (source animal id): 4): ≤ 1 µg/mL | minimum inhibitory concentration (isolate (source animal id): 7): ≤ 1 µg/mL | minimum inhibitory concentration (isolate (source animal id): 14): ≤ 1 µg/mL | minimum inhibitory concentration (isolate (source animal id): 15): ≤ 1 µg/mL | minimum inhibitory concentration (isolate (source animal id): 17): ≤ 1 µg/mL | minimum inhibitory concentration (isolate (source animal id): 18): ≤ 1 µg/mL | minimum inhibitory concentration (isolate (source animal id): 20): ≤ 1 µg/mL | minimum inhibitory concentration (isolate (source animal id): 23): ≤ 1 µg/mL | minimum inhibitory concentration (isolate (source animal id): 45): ≤ 1 µg/mL | minimum inhibitory concentration (isolate (source animal id): 53): ≤ 1 µg/mL | minimum inhibitory concentration (isolate (source animal id): 83): ≤ 1 µg/mL | minimum inhibitory concentration (isolate (source animal id): 88): ≤ 1 µg/mL | minimum inhibitory concentration (isolate (source animal id): 92): ≤ 1 µg/mL | minimum inhibitory concentration (isolate (source animal id): 93): ≤ 1 µg/mL | minimum inhibitory concentration (isolate (source animal id): 99): ≤ 1 µg/mL | minimum inhibitory concentration (isolate (source animal id): 100): ≤ 1 µg/mL | minimum inhibitory concentration (isolate (source animal id): 105): ≤ 1 µg/mL | minimum inhibitory concentration (isolate (source animal id): 107): ≤ 1 µg/mL | minimum inhibitory concentration (isolate (source animal id): 108): ≤ 1 µg/mL | minimum inhibitory concentration (isolate (source animal id): 109): ≤ 1 µg/mL | minimum inhibitory concentration (isolate (source animal id): 110): ≤ 1 µg/mL | minimum inhibitory concentration (isolate (source animal id): 117): ≤ 1 µg/mL | minimum inhibitory concentration (isolate (source animal id): 121): ≤ 1 µg/mL | minimum inhibitory concentration (isolate (source animal id): 123): ≤ 1 µg/mL | minimum inhibitory concentration (isolate (source animal id): 124): ≤ 1 µg/mL | minimum inhibitory concentration (isolate (source animal id): 127): ≤ 1 µg/mL | minimum inhibitory concentration (isolate (source animal id): 128): ≤ 1 µg/mL | minimum inhibitory concentration (isolate (source animal id): 130): 4 µg/mL (≈ 5.15 µM) | minimum inhibitory concentration (isolate (source animal id): 132): ≤ 1 µg/mL | minimum inhibitory concentration (isolate (source animal id): 135): ≤ 1 µg/mL | minimum inhibitory concentration (isolate (source animal id): 140): ≤ 1 µg/mL | minimum inhibitory concentration (isolate (source animal id): 141): ≤ 1 µg/mL | minimum inhibitory concentration (isolate (source animal id): 142): > 8 µg/mL | minimum inhibitory concentration (isolate (source animal id): 144): ≤ 1 µg/mL | minimum inhibitory concentration (isolate (source animal id): 146): 4 µg/mL (≈ 5.15 µM) | minimum inhibitory concentration (isolate (source animal id): 147): > 8 µg/mL | minimum inhibitory concentration (isolate (source animal id): 151): ≤ 1 µg/mL | minimum inhibitory concentration (isolate (source animal id): 153): ≤ 1 µg/mL | minimum inhibitory concentration (isolate (source animal id): 154): > 8 µg/mL | minimum inhibitory concentration (isolate (source animal id): 156): > 8 µg/mL | minimum inhibitory concentration (isolate (source animal id): 157): ≤ 1 µg/mL | minimum inhibitory concentration (isolate (source animal id): 176): ≤ 1 µg/mL | minimum inhibitory concentration (isolate (source animal id): 183): ≤ 1 µg/mL | minimum inhibitory concentration (isolate (source animal id): 186): ≤ 1 µg/mL | minimum inhibitory concentration (isolate (source animal id): 196): ≤ 1 µg/mL | minimum inhibitory concentration (isolate (source animal id): 198): ≤ 1 µg/mL | minimum inhibitory concentration (isolate (source animal id): 200): ≤ 1 µg/mL
